From publication PMC11645267, “Novel pharmacologic inhibition of lysine-specific demethylase 1 as a potential therapeutic for glioblastoma” (Cancer Gene Therapy, 2024)

How the values were obtained:
MAO-B = molecular target: T1, MAO-B (Homo sapiens, UniProt P27338); conditions: cited from earlier work
T1 sequence (P27338 1-520): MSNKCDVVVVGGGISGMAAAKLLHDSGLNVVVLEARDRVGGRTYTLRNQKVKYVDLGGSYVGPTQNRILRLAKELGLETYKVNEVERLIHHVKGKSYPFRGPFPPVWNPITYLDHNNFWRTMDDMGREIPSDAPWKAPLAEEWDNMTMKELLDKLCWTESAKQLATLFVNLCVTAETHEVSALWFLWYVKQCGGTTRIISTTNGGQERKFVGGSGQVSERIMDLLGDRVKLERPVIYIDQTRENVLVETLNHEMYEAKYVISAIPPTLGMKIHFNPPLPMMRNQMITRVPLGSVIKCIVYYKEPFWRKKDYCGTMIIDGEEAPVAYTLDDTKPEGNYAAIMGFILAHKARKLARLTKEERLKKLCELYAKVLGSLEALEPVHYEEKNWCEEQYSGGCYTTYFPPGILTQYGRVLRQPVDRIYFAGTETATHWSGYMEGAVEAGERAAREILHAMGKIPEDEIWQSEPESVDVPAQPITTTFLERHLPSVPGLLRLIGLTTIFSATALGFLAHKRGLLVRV

MAO-A = molecular target: T2, MAO-A (Homo sapiens, UniProt P21397); conditions: cited from earlier work
T2 sequence (P21397 1-527): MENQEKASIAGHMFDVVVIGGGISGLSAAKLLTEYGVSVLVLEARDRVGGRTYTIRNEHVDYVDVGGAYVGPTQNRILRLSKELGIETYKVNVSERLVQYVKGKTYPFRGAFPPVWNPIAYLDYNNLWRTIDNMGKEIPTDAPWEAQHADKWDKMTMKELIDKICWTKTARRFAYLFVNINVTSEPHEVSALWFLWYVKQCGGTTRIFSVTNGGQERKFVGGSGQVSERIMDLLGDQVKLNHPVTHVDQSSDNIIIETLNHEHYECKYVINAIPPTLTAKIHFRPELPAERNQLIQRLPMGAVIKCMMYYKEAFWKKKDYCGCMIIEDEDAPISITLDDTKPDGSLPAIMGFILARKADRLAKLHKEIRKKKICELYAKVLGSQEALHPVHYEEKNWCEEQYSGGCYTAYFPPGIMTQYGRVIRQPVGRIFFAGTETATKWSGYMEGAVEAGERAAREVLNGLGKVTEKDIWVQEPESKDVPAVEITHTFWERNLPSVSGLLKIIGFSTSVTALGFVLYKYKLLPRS

LSD2 = molecular target: T3, LSD2 (Homo sapiens, UniProt Q8NB78); set-up: method as in PMID 32166890; conditions: cited from earlier work
T3 sequence (Q8NB78 1-822): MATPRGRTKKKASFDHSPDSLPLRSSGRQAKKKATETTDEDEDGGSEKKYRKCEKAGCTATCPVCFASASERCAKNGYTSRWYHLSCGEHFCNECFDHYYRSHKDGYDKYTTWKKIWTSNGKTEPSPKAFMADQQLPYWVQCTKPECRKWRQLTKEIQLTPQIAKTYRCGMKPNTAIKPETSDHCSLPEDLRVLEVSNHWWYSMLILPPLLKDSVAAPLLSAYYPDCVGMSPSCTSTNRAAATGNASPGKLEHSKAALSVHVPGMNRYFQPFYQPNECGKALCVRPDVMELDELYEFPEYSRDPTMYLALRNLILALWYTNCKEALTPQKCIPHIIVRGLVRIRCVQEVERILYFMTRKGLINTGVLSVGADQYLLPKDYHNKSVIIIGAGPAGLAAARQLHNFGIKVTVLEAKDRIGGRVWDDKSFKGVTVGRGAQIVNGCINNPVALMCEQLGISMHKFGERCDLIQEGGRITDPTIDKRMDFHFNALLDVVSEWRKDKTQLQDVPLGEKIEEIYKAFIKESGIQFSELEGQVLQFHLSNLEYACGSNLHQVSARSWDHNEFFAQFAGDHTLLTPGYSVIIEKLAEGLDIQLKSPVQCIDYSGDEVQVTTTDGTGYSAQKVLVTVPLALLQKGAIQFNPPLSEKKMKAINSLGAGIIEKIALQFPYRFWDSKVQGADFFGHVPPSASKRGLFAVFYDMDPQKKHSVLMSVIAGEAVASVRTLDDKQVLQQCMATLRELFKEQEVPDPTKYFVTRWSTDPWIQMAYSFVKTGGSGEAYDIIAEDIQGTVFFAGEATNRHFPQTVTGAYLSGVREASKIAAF

GSC222 = assay: Cell proliferation assay (CellTiter-Glo 3D); assay type: cell-based; conditions: GSC222, 96 h; read-out: Growth inhibitory IC50 (GI50)
Experimental: (§1) Supplementary materials and methods […]
(§2) Cell lines and culture conditions […]
(§3) 2013 #1009}{Katsushima, 2016 #1156}. GSC cells were cultured in Neurobasal Medium (Life Technologies, Carlsbad, CA, USA) containing N2 and B27 supplements (Life Technologies) along with human recombinant basic fibroblast growth factor and epidermal growth factor (20 ng/ml each; R&D Systems, Minneapolis, MN, USA). Cells were cultured at 37°C in a humidified incubator with 5% CO2.
(§4) For the cell proliferation assay, cells at a density of 1 × 10^5 cells per well were seeded before treatment with LSD1 inhibitors. Cell proliferation was measured after 4 days using a Cell Counting Kit 8 (Dojindo, Kumamoto, Japan) according to the manufacturer ’s […]
(§5) instructions. For GSC cells, the CellTiter-Glo 3D Viability Assay (Promega, Madison, WI, USA) was used to measure the living cells. […]

GSC316 = assay: Cell proliferation assay (CellTiter-Glo 3D); assay type: cell-based; conditions: GSC316, 96 h; read-out: Growth inhibitory IC50 (GI50)
Experimental: as §1, §2, §3, §4, §5

GSC1228 = assay: Cell proliferation assay (CellTiter-Glo 3D); assay type: cell-based; conditions: GSC1228, 96 h; read-out: Growth inhibitory IC50 (GI50)
Experimental: as §1, §2, §3, §4, §5

F3 = assay: Cell proliferation assay (Cell Counting Kit 8); assay type: cell-based; conditions: 96 h; F3 (normal neural stem cell line), 4 days; read-out: Growth inhibitory IC50 (GI50)
Excerpt: as §1
(§6) Cell lines and culture conditions
(§7) Glioblastoma cell line, LN229, was obtained from the American Type Culture Collection (ATCC, Manassas, VA, USA). Normal fibroblast cell lines TIG3 and WI-38, TM31 (low grade glioma) were obtained from the RIKEN Bioresource Research Center (Tsukuba, Japan). Onda10 and KINGS1 (low grade glioma) cell lines were obtained from the Japanese Collection of Research Bioresources (Ibaraki, Japan). F3 is utilized as a neural stem cell line{Kim, 2004 #1412}{Natsume, 2013 #1009}. All cells were maintained in DMEM medium (Wako, Osaka, Japan) containing 5% fetal bovine serum (FBS, Thermo Fisher Scientific, Waltham, MA, USA) and 1% penicillin-streptomycin (Wako). […]
as §4, §5

Onda10 = assay: Cell proliferation assay (Cell Counting Kit 8); assay type: cell-based; conditions: 96 h; Onda10 (grade III glioma), 4 days; read-out: Growth inhibitory IC50 (GI50)
Excerpt: as §1, §6, §7, §4, §5

TIG3 = assay: Cell proliferation assay (Cell Counting Kit 8); assay type: cell-based; conditions: Homo sapiens, TIG-3, 96 h; TIG3 (normal fibroblast), 4 days; read-out: Growth inhibitory IC50 (GI50)
Excerpt: as §1, §6, §7, §4, §5

WI38 = assay: Cell proliferation assay (Cell Counting Kit 8); assay type: cell-based; conditions: Homo sapiens, WI-38, 96 h; WI38 (normal fibroblast), 4 days; read-out: Growth inhibitory IC50 (GI50)
Excerpt: as §1, §6, §7, §4, §5

TM31 = assay: Cell proliferation assay (Cell Counting Kit 8); assay type: cell-based; conditions: 96 h; TM31 (grade III glioma), 4 days; read-out: Growth inhibitory IC50 (GI50)
Excerpt: as §1, §6, §7, §4, §5

LN229 = assay: Cell proliferation assay (Cell Counting Kit 8); assay type: cell-based; conditions: Homo sapiens, LN-229, 96 h; LN229 (GBM cell line), 4 days; read-out: Growth inhibitory IC50 (GI50)
Excerpt: as §1, §6, §7, §4, §5

KINGS1 = assay: Cell proliferation assay (Cell Counting Kit 8); assay type: cell-based; conditions: Homo sapiens, KINGS-1, 96 h; KINGS1 (grade III glioma), 4 days; read-out: Growth inhibitory IC50 (GI50)
Excerpt: as §1, §6, §7, §4, §5

Compound	Ki (MAO-B)	Ki (MAO-A)	Ki (LSD2)	IC50 (GSC222)	IC50 (GSC316)	IC50 (GSC1228)	IC50 (F3)	IC50 (Onda10)	IC50 (TIG3)	IC50 (WI38)	IC50 (TM31)	IC50 (LN229)	IC50 (KINGS1)
CN1CCN(C(=O)CNC2CC2c2cc(F)cc(F)c2OCc2ccccc2)CC1 (stereo not drawn) [S2157]	> 250 µM	> 250 µM	> 250 µM	> 40 µM	> 40 µM	19.7 µM	36.5 µM	> 40 µM	33.3 µM	> 40 µM	27 µM	> 40 µM	> 40 µM
NC1CC1c1cc(F)cc(F)c1OCc1ccccc1 (stereo not drawn) [S2101]	–	–	> 250 µM	> 40 µM	> 40 µM	> 40 µM	26 µM	25 µM	> 40 µM	> 40 µM	6.9 µM	12 µM	19 µM
